Data on three compounds can be found in ChEMBL document CHEMBL4417627, “Dab2 inhibitors for the prevention and treatment of cystic fibrosis” (2017).

Structures are written as SMILES. Bounds are passed on as bounds.

What all share (assay type): cell-based
Series [1] is described as follows: Toxicity in human CFBE cells assessed as reduction in cell viability at 100 uM incubated for 3 hrs by LDH assay relative to control 1% triton.
Series [2] is described as follows: Toxicity in human CFBE cells assessed as reduction in cell viability incubated for 3 hrs by LDH assay.
A short description of series [3]: Toxicity in human CFBE cells assessed as reduction in cell viability at 5 to 100 uM incubated for 3 hrs by MTT assay.
Series [4] is described as follows: Toxicity in human CFBE cells assessed as reduction in cell viability at 5 to 100 uM incubated for 12 hrs by MTT assay. For orientation: Formazan colour is commonly taken as a measure of viable cells.
Series [5] is described as follows: Toxicity in human CFBE cells assessed as reduction in cell viability incubated for 12 hrs by LDH assay.
Series [6] can be described thus: Toxicity in human CFBE cells assessed as reduction in cell viability at 40 uM incubated for 24 hrs by LDH assay relative to control 1% triton.

On to `CC1(C)Cc2ccccc2-c2n[nH]c(=S)n21`, for which the Activity result in series [1] is “<= 10%”; in series [2], “Non-Toxic”; in series [3], “Non-Toxic”; in series [4] it was “Non-Toxic”; in series [5], “Toxic”.

In the case of `CN1CCc2cccc3c2[C@@H]1Cc1ccc(O)c(O)c1-3.Cl`, the Activity result is given as “Dose-dependent effect” in series [2], “Non-Toxic” in series [3], “Non-Toxic” in series [4] and “Dose-dependent effect” in series [5].

For the compound `C[C@]12CC[C@@H]3c4cc(O)c(O)cc4CC[C@H]3[C@@H]1CC[C@@H]2O`, the Activity entry in series [2] was “Dose-dependent effect”; in series [6] it was 20 to 40%; in series [3], “Non-Toxic”; in series [4] it was “Non-Toxic”; in series [5], “Dose-dependent effect”.
